Measurements reported in ChEMBL document CHEMBL1201862, “PubChem BioAssay data set” (2004).
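Five concentrations, 48 hours, 96-well plates. GI50 = concentration required for 50% inhibition of growth.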 Calls of active or inactive are those of the source. Cut-off read from the data, not from the text of the source: active = GI50 up to about 1.1 µM and inactive = higher.

Assays:
Assay in all cases: DTP human tumour cell line panel, 48 h
[1] = test system: COLO 205
[2] = test system: OVCAR-4
[3] = test system: SF-295
[4] = test system: MOLT-4
[5] = test system: SNB-19
[6] = test system: MDA-MB-231
[7] = test system: NCI-H522
[8] = test system: EKVX
[9] = test system: NCI-H23
[10] = test system: RXF 393
[11] = test system: U-251
[12] = test system: UO-31
[13] = test system: NCI-H460
[14] = test system: TK-10
[15] = test system: SF-268
[16] = test system: A549
[17] = test system: K562
[18] = test system: IGROV-1
[19] = test system: OVCAR-5
[20] = test system: MDA-N
[21] = test system: MDA-MB-435
[22] = test system: HT-29
[23] = test system: RPMI-8226
[24] = test system: BT-549
[25] = test system: HL-60
[26] = test system: SK-MEL-28
[27] = test system: 786-0
[28] = test system: OVCAR-3
[29] = test system: HCC 2998
[30] = test system: OVCAR-8
[31] = test system: HCT-116
[32] = test system: T47D
[33] = test system: HOP-62
[34] = test system: Malme-3M
[35] = test system: SNB-75
[36] = test system: HOP-92
[37] = test system: LOX IMVI
[38] = test system: HCT-15
[39] = test system: SK-MEL-2
[40] = test system: SW-620
[41] = test system: PC-3
[42] = test system: SK-MEL-5
[43] = test system: CAKI-1
[44] = test system: SF-539
[45] = test system: SR
[46] = test system: KM12
[47] = test system: NCI-H226
[48] = test system: NCI/ADR-RES
[49] = test system: UACC-257
[50] = test system: M14
[51] = test system: Hs-578T
[52] = test system: SN12C
[53] = test system: UACC-62
[54] = test system: A498
[55] = test system: ACHN
[56] = test system: DU-145
[57] = test system: MCF7
[58] = test system: SK-OV-3
[59] = test system: KM-20L2
[60] = test system: LXFL 529
[61] = test system: CCRF-CEM
[62] = test system: XF498
[63] = test system: DLD-1
[64] = test system: SNB-78
[65] = test system: DMS-114
[66] = test system: M19-MEL

Measured: GI50

CC(=O)Nc1ccc2c3c(cc(O)c2c1)N(C(=O)CCCCCC(=O)N1CC(CCl)c2c1cc(O)c1cc(NC(C)=O)ccc21)CC3CCl (centres undefined)
active: [1] 0.016 µM | [2] 0.181 µM | [3] 0.0156 µM | [4] < 0.01 µM | [5] < 0.01 µM | [6] 0.0301 µM | [7] < 0.01 µM | [8] 0.193 µM | [9] < 0.01 µM | [10] 0.0152 µM | [11] < 0.01 µM | [12] 0.105 µM | [13] < 0.01 µM | [14] 0.169 µM | [15] < 0.01 µM | [16] 0.0176 µM | [17] 0.0625 µM | [18] 0.0292 µM | [19] 0.101 µM | [20] 0.0164 µM | [21] 0.0191 µM | [22] 0.0321 µM | [23] 0.0296 µM | [24] 0.0134 µM | [25] 0.115 µM | [26] 0.0547 µM | [27] < 0.01 µM | [28] 0.0172 µM | [29] 0.0211 µM | [30] < 0.0104 µM | [31] 0.0101 µM | [32] < 0.01 µM | [33] 0.019 µM | [34] 0.0125 µM | [35] < 0.01 µM | [36] < 0.01 µM | [37] < 0.01 µM | [39] 0.0147 µM | [40] 0.13 µM | [41] 0.045 µM | [42] 0.0109 µM | [43] 0.0123 µM | [44] 0.012 µM | [45] < 0.01 µM | [46] 0.0416 µM | [47] < 0.0149 µM | [49] 0.0168 µM | [50] < 0.01 µM | [51] 0.0362 µM | [52] < 0.012 µM | [53] < 0.01 µM | [54] 0.0109 µM | [55] < 0.01 µM | [56] < 0.01 µM | [57] < 0.01 µM | [58] 0.0405 µM
0.377 µM: [38]
inactive: [48] 1.38 µM

CCOC(=O)/C(=C/c1ccc(OC)c(OC)c1)C(=O)c1ccccc1
inactive: [1] 16.9 µM | [2] 21.4 µM | [3] 21.2 µM | [4] 17.5 µM | [5] 15.8 µM | [59] 18.4 µM | [7] 13.9 µM | [60] 12.2 µM | [8] 25.8 µM | [9] 17.7 µM | [11] 19.5 µM | [12] 14.4 µM | [13] 33.3 µM | [14] 26.4 µM | [15] 14.8 µM | [16] 28.2 µM | [17] 10.3 µM | [18] 20.2 µM | [19] 17.5 µM | [22] 13.6 µM | [23] 10.5 µM | [61] 9.64 µM | [26] 13.5 µM | [27] > 100 µM | [28] 18 µM | [29] 18.3 µM | [30] 22.3 µM | [33] 19.5 µM | [34] 76.6 µM | [35] 12.4 µM | [39] 38.5 µM | [40] 19.4 µM | [42] 14.3 µM | [62] 14.9 µM | [63] 15.4 µM | [43] 14.7 µM | [46] 14.9 µM | [64] 17.1 µM | [65] 15.2 µM | [49] 15.1 µM | [50] 13.9 µM | [52] > 10 µM | [53] 13.2 µM | [54] 22.3 µM | [55] 27.9 µM | [66] 19 µM | [58] 24.2 µM
15.1 µM: [38]

CC(C)=CC[S+]([O-])c1ccccc1NC1=CC(=O)CC(C)(C)C1 (centres undefined)
active: [11] 0.223 µM | [33] 0.124 µM
inactive: [1] > 100 µM | [2] > 100 µM | [4] > 100 µM | [5] > 100 µM | [6] > 100 µM | [7] > 100 µM | [8] > 100 µM | [9] > 100 µM | [10] > 100 µM | [12] > 100 µM | [13] > 100 µM | [14] > 100 µM | [15] > 100 µM | [16] > 100 µM | [17] > 100 µM | [18] > 100 µM | [19] > 100 µM | [20] > 100 µM | [21] > 100 µM | [22] > 100 µM | [23] > 100 µM | [24] > 100 µM | [25] > 100 µM | [61] > 100 µM | [26] > 100 µM | [27] > 100 µM | [28] > 100 µM | [29] > 100 µM | [30] > 100 µM | [31] > 100 µM | [32] > 100 µM | [34] > 100 µM | [35] > 100 µM | [36] > 100 µM | [37] > 100 µM | [39] > 100 µM | [40] > 100 µM | [41] > 100 µM | [42] > 100 µM | [43] > 100 µM | [44] > 100 µM | [45] > 100 µM | [46] > 100 µM | [47] > 100 µM | [48] > 100 µM | [49] > 100 µM | [50] > 100 µM | [51] > 100 µM | [52] > 100 µM | [53] > 100 µM | [54] > 100 µM | [55] > 100 µM | [56] > 100 µM | [57] > 100 µM | [58] > 100 µM
8.3 µM: [38]
